Active and inactive are the calls of the source. No cut-off for these calls is given here.

The results in this text go back to ChEMBL document CHEMBL1649369, “Novel 4-aryl-pyrido[1,2-c]pyrimidines with dual SSRI and 5-HT(1A) activity. part 3” (Eur J Med Chem, 2011).

The target in assay [1] is Sodium-dependent serotonin transporter (Rattus norvegicus, UniProt P31652). Put plainly: Displacement of [3H]citalopram from SERT in rat cerebral cortex by liquid scintillation counting. The format is tissue-based. A general note: Loss of bound radioactivity is the signal in a displacement assay; it reports binding, not function.
Sodium-dependent serotonin transporter, sequence (P31652 whole entry): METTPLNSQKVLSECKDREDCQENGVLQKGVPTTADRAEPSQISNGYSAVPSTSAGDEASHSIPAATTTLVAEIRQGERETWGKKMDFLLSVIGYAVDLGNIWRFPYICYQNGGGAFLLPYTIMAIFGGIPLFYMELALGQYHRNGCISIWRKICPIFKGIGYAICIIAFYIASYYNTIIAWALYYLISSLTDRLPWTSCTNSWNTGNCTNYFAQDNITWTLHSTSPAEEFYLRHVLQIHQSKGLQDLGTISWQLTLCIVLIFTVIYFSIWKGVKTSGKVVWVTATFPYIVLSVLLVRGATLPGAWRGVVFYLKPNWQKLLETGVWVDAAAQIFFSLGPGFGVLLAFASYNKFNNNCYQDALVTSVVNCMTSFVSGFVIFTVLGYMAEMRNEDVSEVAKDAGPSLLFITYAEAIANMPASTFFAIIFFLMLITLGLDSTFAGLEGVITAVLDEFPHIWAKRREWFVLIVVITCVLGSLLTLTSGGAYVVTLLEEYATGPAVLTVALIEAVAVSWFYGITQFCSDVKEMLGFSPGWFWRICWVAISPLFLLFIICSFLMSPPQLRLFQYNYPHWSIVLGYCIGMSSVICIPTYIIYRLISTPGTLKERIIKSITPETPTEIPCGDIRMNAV
In assay [2] the target is T1, 5-hydroxytryptamine receptor 1A (Rattus norvegicus, UniProt P19327).
T1 sequence (P19327 whole entry): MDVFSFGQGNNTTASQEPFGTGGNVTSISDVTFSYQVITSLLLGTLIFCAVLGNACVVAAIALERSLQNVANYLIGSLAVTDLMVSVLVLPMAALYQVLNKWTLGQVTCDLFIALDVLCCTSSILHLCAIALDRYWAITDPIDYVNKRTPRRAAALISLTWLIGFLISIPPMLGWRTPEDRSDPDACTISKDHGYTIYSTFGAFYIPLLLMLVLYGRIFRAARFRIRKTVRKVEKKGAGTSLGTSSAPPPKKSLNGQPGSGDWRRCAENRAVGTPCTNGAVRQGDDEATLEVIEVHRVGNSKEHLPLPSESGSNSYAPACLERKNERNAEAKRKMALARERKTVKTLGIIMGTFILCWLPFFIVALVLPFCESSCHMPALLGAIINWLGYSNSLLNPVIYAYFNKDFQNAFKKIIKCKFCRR
The assay is described as follows: Displacement of [3H]8-OH-DPAT from 5-HT1A receptor in rat hippocampus. The format is tissue-based.

For assay [3], the species on record is Mus musculus. Conditions: Swiss albino, 10 mg/kg.
Description: Effect on hypothermia in Swiss albino mouse assessed as change in rectal body temperature at 10 mg/kg, ip dosed 15 mins after 0.1 mg/kg, sc WAY 100635 challenge measured after 30 mins by inducible hypothermia test
Assay [4] deals with Mus musculus. The assay is described as follows: Effect on hypothermia in Swiss albino mouse assessed as change in rectal body temperature at 5 mg/kg, ip after 30 mins by inducible hypothermia test. The format is functional, organism-based. Set-up: dose 5 mg/kg.
Assay [5] concerns Mus musculus. The assay is described as follows: Effect on hypothermia in Swiss albino mouse assessed as change in rectal body temperature at 10 mg/kg, ip after 90 mins by inducible hypothermia test. The format is functional, organism-based. On the set-up: dose 10 mg/kg.
For assay [6], the system named is Mus musculus. The assay is described as follows: Effect on hypothermia in Swiss albino mouse assessed as change in rectal body temperature at 5 mg/kg, ip after 60 mins by inducible hypothermia test. On the set-up: dose 5 mg/kg. It counts as functional, organism-based.
Assay [7] has as its system Mus musculus. The assay is described as follows: Effect on hypothermia in Swiss albino mouse assessed as change in rectal body temperature at 5 mg/kg, ip after 90 mins by inducible hypothermia test. The format is functional, organism-based. Set-up: dose 5 mg/kg.
Assay [8] deals with Mus musculus. The assay is described as follows: Effect on hypothermia in Swiss albino mouse assessed as change in rectal body temperature at 10 mg/kg, ip after 30 mins by inducible hypothermia test. It counts as functional, organism-based. On the set-up: dose 10 mg/kg.
The species entered for assay [9] is Mus musculus. Conditions: Swiss albino, 10 mg/kg. The source holds these as a separate data set.
Description: Effect on hypothermia in Swiss albino mouse assessed as change in rectal body temperature at 10 mg/kg, ip dosed 15 mins after 0.1 mg/kg, sc WAY 100635 challenge measured after 60 mins by inducible hypothermia test
Assay [10] has as its system Mus musculus. Put plainly: Effect on hypothermia in Swiss albino mouse assessed as change in rectal body temperature at 10 mg/kg, ip after 60 mins by inducible hypothermia test. Set-up: dose 10 mg/kg. It counts as functional, organism-based.
Assay [11] relates to Mus musculus. Put plainly: Effect on hypothermia in Swiss albino mouse assessed as change in rectal body temperature at 5 mg/kg, ip after 120 mins by inducible hypothermia test. It counts as functional, organism-based. Set-up: dose 5 mg/kg.
Assay [12] deals with Mus musculus. Put plainly: Effect on hypothermia in Swiss albino mouse assessed as change in rectal body temperature at 10 mg/kg, ip after 120 mins by inducible hypothermia test. The format is functional, organism-based. Set-up: dose 10 mg/kg.
Assay [13] relates to Mus musculus. Put plainly: Effect on hypothermia in Swiss albino mouse assessed as change in rectal body temperature at 20 mg/kg, ip after 120 mins by inducible hypothermia test. It counts as functional, organism-based. On the set-up: dose 20 mg/kg.
Assay [14] concerns Mus musculus. Put plainly: Effect on hypothermia in Swiss albino mouse assessed as change in rectal body temperature at 20 mg/kg, ip after 30 mins by inducible hypothermia test. It counts as functional, organism-based. On the set-up: dose 20 mg/kg.
Assay [15] has as its system Mus musculus. The assay is described as follows: Effect on hypothermia in Swiss albino mouse assessed as change in rectal body temperature at 20 mg/kg, ip after 60 mins by inducible hypothermia test. It counts as functional, organism-based. Set-up: dose 20 mg/kg.
Assay [16] relates to Mus musculus. Put plainly: Effect on hypothermia in Swiss albino mouse assessed as change in rectal body temperature at 20 mg/kg, ip dosed 15 mins after 0.1 mg/kg, sc WAY 100635 challenge measured after 30 mins by inducible hypothermia test. The format is functional, organism-based.
Assay [17] relates to Mus musculus. Put plainly: Effect on hypothermia in Swiss albino mouse assessed as change in rectal body temperature at 20 mg/kg, ip after 90 mins by inducible hypothermia test. The format is functional, organism-based. Set-up: dose 20 mg/kg.
The test system of assay [18] is Mus musculus. The assay is described as follows: Effect on hypothermia in Swiss albino mouse assessed as change in rectal body temperature at 20 mg/kg, ip dosed 15 mins after 0.1 mg/kg, sc WAY 100635 challenge measured after 60 mins by inducible hypothermia test. It counts as functional, organism-based.
For assay [19], the system named is Mus musculus. Put plainly: Antidepressant activity in Swiss albino mouse assessed as total immobility time at 10 mg/kg, ip administered 30 mins before test measured 6 mins test session after 2 mins habituation period by forced swimming test. It counts as functional, organism-based. On the set-up: dose 10 mg/kg.
For assay [20], the system named is Mus musculus. The assay is described as follows: Antidepressant activity in Swiss albino mouse assessed as total immobility time at 20 mg/kg, ip administered 30 mins before test measured 6 mins test session after 2 mins habituation period by forced swimming test. It counts as functional, organism-based. On the set-up: dose 20 mg/kg.

On to `COc1ccccc1-c1c2n(c(=O)n(CCCCN3CCC(c4c(C)[nH]c5ccccc45)CC3)c1=O)CCCC2`, for which the Ki – broadly, the dissociation constant of the complex between target and ligand, obtained from inhibition or displacement – in assay [1] turned out to be 1300 nM; in assay [2], 319 nM.

In the case of `COc1ccc(-c2c3n(c(=O)n(CCCCN4CCC(c5c(C)[nH]c6ccccc56)CC4)c2=O)CCCC3)cc1`, the Ki in [1] is 184 nM; in assay [2], 153 nM.

With `Cc1ccc(-c2c3n(c(=O)n(CCCCN4CCC(c5c(C)[nH]c6ccccc56)CC4)c2=O)CCCC3)cc1`, the Ki in assay [1] amounted to 1800 nM; in assay [2] it was 279 nM.

Take `O=c1c(-c2ccccc2)c2n(c(=O)n1CCCCN1CCC(c3c[nH]c4ccccc34)CC1)CCCC2`: the deltaT in the assay filed under Mus musculus [3] is -0.5 °C; in the assay on Mus musculus [4], -0.7 °C; in the assay on Mus musculus [5] it was -0.2 °C; in the assay on Mus musculus [6], -0.3 °C; in the assay with Mus musculus [7], -0.2 °C; in the assay on Mus musculus [8], -1.1 °C. In addition, the deltaT in the assay filed under Mus musculus [9] was -0.2 °C; with Mus musculus [10] it was -0.3 °C; in the assay with Mus musculus [11] it was -0.1 °C; with Mus musculus [12], -0.1 °C. The Ki in assay [1] was 81.7 nM; in assay [2] it was 28.3 nM.

Take `Cc1[nH]c2ccccc2c1C1CCN(CCCCn2c(=O)c(-c3ccccc3F)c3n(c2=O)CCCC3)CC1`: the Ki in assay [1] came out at 1300 nM; in assay [2] it was 303 nM.

In the case of `Cc1ccc(-c2c3n(c(=O)n(CCCCN4CCC(c5c[nH]c6ccccc56)CC4)c2=O)CCCC3)cc1`, the deltaT in the assay with Mus musculus [13] was -0.3 °C; in the assay with Mus musculus [4], -0.5 °C; in the assay with Mus musculus [5] it was -0.2 °C; in the assay on Mus musculus [6], -0.4 °C; in the assay with Mus musculus [14], -1.3 °C; with Mus musculus [7] it was -0.3 °C. The deltaT was -0.6 °C in the assay with Mus musculus [8]; -0.9 °C in the assay on Mus musculus [15]; -0.4 °C in the assay on Mus musculus [16]; -0.4 °C in the assay on Mus musculus [17]; -0.2 °C in the assay on Mus musculus [18]; -0.3 °C with Mus musculus [10]. Also, the deltaT in the assay with Mus musculus [11] is -0.2 °C; in the assay with Mus musculus [12], -0.1 °C. The Ki came to 42.4 nM in assay [1] and 46.2 nM in assay [2]. For the same compound, the outcome in the assay with Mus musculus [19] and with Mus musculus [20] was inactive.

In the case of `Cc1ccccc1-c1c2n(c(=O)n(CCCCN3CCC(c4c[nH]c5ccccc45)CC3)c1=O)CCCC2`, the Ki in assay [1] was 69.1 nM; in [2] it was 112 nM.
